In patent US5573772A, “Methods for protecting tissues and organs from ischemic damage” (priority 1994, dated 1996):
“Also recorded” adds a separate entry of the source.

System: isolated rabbit hearts
Experiment: Hemodynamic responses (heart rate, coronary flow, LVDP, AV conduction) in isolated perfused rabbit hearts, Example 1
Design: species or system rabbit (New Zealand white)
Conditions: for Hemodynamics, treatment alone: SPT or DPCPX alone
Experimental: These solutions were then diluted in Krebs buffer to the final concentration just before the experiments started. New Zealand white rabbits of either sex, between 1.4-2.4 kg, were anesthetized with intravenous sodium pentobarbital (30 mg/kg). The neck was opened and a tracheotomy was performed. The rabbits were ventilated with 100% oxygen via a positive pressure respirator (MD industries, Mobile, Ala.). Ventilation rate was 30-35 breaths per minute, and tidal volume was approximately 15 ml. A left thoracotomy was performed in the fourth intercostal space and pericardium was opened to expose the heart. A 2-0 silk suture with an RB taper needle was passed around a branch of the left coronary artery, and the end of the silk were threaded through a small vinyl tube to form a snare. The heads were quickly excised and mounted on a Langendorff apparatus and perfused at constant pressure with Krebs buffer containing (in mM) 118.5 NaCl, 4.7 KCl, 1.2 MgSO4, 1.2 K2 PO4, 24.3 NaHCO3, 2.5 CaCl2 and 10 glucose. […] The temperature of the perfusate was maintained at 37° C. The perfusion pressure was kept at 75 mm Hg. Pacing electrodes were placed on the right atrium and all hearts were paced at 200 beats/minute with pulses of 5 volts and 4 msec duration to keep the heart rate constant. A fluid-filled latex balloon connected to a transducer via PE240 tubing was inserted into the left ventricle. Balloon volume was adjusted to set the left ventricular diastolic pressure at 10 mm Hg at the beginning of the experiment. Total coronary artery flow was measured by timed collection of buffer from the chamber into a graduated cylinder. Regional ischemia was effected by pulling the snare tight and clamping the tube with a hemostat. Global ischemia was performed by clamping the inflow tubing of the Langendorff apparatus. Reperfusion was achieved by releasing the restriction. All hearts were allowed to equilibrate for 20 minutes before the experiments were started. Heart rate (HR), coronary flow (CF) and left ventricular developed pressure (LVDP) were recorded at the point just before and at the end of each treatment with the pacing momentarily turned off. The animals were divided into 10 groups. The hearts in all groups were subjected to 30 minutes of coronary branch occlusion followed by 120 minutes of reperfusion. Control group (CON, n=10) only experienced the above-mentioned 30 minutes of regional ischemia while the preconditioned group (PC, n=12) received an additional 5 minutes of global ischemia plus 10 minutes of reperfusion prior to the 30 minute occlusion. In the adenosine group (ADO, n=6) and the APNEA group (APNEA, n=5), the hearts were exposed to 10 uM adenosine and 50 nM APNEA respectively, for 5 minutes as a substitute for ischemic preconditioning. The drug was allowed to washout for 10 minutes before the 30 minute ischemia was started. In groups receiving SPT, the blocker was included in the perfusate for 15 minutes at 100 uM starting 5 minutes before the exposure of ADO (ADO-SPT group, n=6) or APNEA (APNEA-SPT group, n=5) or 5 minutes before and after 5 minutes of preconditioning ischemia (PC-SPT group, n=5). […] All results are expressed as group mean±SEM. The differences among groups was determined by a one-way analysis of variance with a Newman-Keuls post hoc test. A value of p<0.05 was considered to be significant. In order to ensure that the adenosinergic agents were active at the concentrations employed, hemodynamic responses were measured in a separate group of animals who experienced similar surgery described above except the coronary snare was not installed and therefore the second group of animals were not exposed to ischemia. The hearts were quickly excised and mounted on the Langendorff apparatus and perfused with Krebs buffer. The depressant effect of adenosine on atrioventricular (AV) conduction time was measured at a constant rate of atrial pacing, as an index of A 1-mediated activity. […]

Nc1ncnc2c1ncn2[C@@H]1O[C@H](CO)[C@@H](O)[C@H]1O [ADO, Adenosine]
HR and CF effects of ADO after washout (10 minutes of washout): completely disappeared | Coronary flow (CF) after infusion (ADO 10 uM, 5 minutes, increased from 7.6±0.6 ml/g/min): 10.3 ± 0.8 mL/g/min | Heart rate (HR) after infusion (ADO 10 uM, 5 minutes, significantly decreased from 176±8 beats/min): 149±6 beats/minutes

Nc1ccc(CCNc2ncnc3c2ncn3[C@@H]2O[C@H](CO)[C@@H](O)[C@H]2O)cc1 [APNEA, N^6-(2-(4-aminophenyl)ethyl) adenosine]
Alteration of HR, CF or LVDP (APNEA 50 nM): did not significantly alter HR, CF or LVDP | Activation of A1 or A2 adenosine receptors (APNEA 50 nM, inferred from hemodynamics): neither the A1 nor A2 adenosine receptors are activated

CCCn1c(=O)c2[nH]c(C3CCCC3)nc2n(CCC)c1=O [DPCPX, 8-cyclopentyl-1,3-dipropylxanthine]
Blockade of adenosine's effect on heart rate (DPCPX 200 nM vs ADO): eliminated the decrease in HR; also recorded: entirely blocked; also recorded: completely blocked | Effect on increase in CF from ADO infusion (DPCPX 200 nM vs ADO): did not affect the increase in CF | Hemodynamics, treatment alone: only slightly affected

Cn1c(=O)c2[nH]c(-c3ccc(S(=O)(=O)O)cc3)nc2n(C)c1=O [SPT, 8-(p-Sulfophenyl)-theophylline]
Blockade of CF increase from ADO infusion (SPT 100 uM vs ADO): abolished | Blockade of HR decrease from ADO infusion (SPT 100 uM vs ADO): abolished | Hemodynamics, treatment alone: only slightly affected
